Test results published in the NIST ThermoML archive (doi:10.1021/je0301951).

Assay: wn = mass fraction of the nth substance listed
Details: Liquid, w2 = 1

Row | Structure (SMILES) | binary diffusion coefficient (293 K) | binary diffusion coefficient (298 K) | binary diffusion coefficient (303 K) | binary diffusion coefficient (308 K) | binary diffusion coefficient (313 K)
1 | O=C=O [carbon dioxide] + O | 1.71e-09 m2/s | 1.9e-09 m2/s | 2.13e-09 m2/s | 2.47e-09 m2/s | 2.86e-09 m2/s
2 | [N-]=[N+]=O [nitrous oxide] + O | 1.54e-09 m2/s | 1.8e-09 m2/s | 1.98e-09 m2/s | 2.29e-09 m2/s | 2.58e-09 m2/s
